This is an account of results in patent publication US20250145608A1, “KRAS DEGRADING COMPOUNDS COMPRISING ANNULATED 2-AMINO-3-CYANO THIOPHENES” (Boehringer Ingelheim Int'l GmbH Corp., priority 2021, published 2025).

Assay type in all cases: cell-based
In assay [1] the target is T1, KRAS(G12D) (Homo sapiens, UniProt P01116, G12D).
T1 construct: introduced immediately downstream of the initiating Methionine codon of the endogenous KRAS locus; host or cells: GP5d-HiBit-KRAS(G12D), a CRISPR knock-in at the endogenous locus
T1 sequence (P01116 1-188 isoform P01116-2 G12D): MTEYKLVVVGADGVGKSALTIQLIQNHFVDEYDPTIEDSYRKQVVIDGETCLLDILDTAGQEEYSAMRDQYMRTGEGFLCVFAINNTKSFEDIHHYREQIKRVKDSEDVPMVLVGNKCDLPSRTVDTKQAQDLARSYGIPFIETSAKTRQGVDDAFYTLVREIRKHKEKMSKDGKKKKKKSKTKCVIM
Briefly: HiBit degradation assay in GP5d-HiBit-KRAS(G12D) cells (18 h; DC50, Dmax). In short, it runs like this:
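GP5d cells carry an endogenous N-terminal HiBit tag on KRAS(G12D), knocked in by CRISPR. They were seeded overnight in DMEM/10% FCS, exposed to compound for 18 h at 37° C, then lysed for HiBit luminescence, normalised to DMSO. DC50 comes from a four-parameter logistic fit; Dmax is maximal degradation as % of control.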
For orientation: With HiBiT, luminescence reflects the tagged protein that the partner subunit can reach.

Assay [2] relates to SW620 cells. Put plainly: SW620 cell proliferation assay (colorectal cancer, G12V), 5 days. The following applies: Homo sapiens, SW-620, 120 h. In short, it runs like this: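 SW620 cells (2000/well, DMEM with 10% FCS) exposed to a logarithmic compound dilution series for 5 days. Viability by CellTiter-Glo luminescence as percent of DMSO control; IC50 from a four-parameter logistic fit.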

Assay [3] has as its system SK—CO-1 cells. Put plainly: SK-CO-1 CTG proliferation assay (120 h) (CRC, G12V). The following applies: Homo sapiens, SK-CO-1 proliferation. The method, then:
SK—CO-1 CTG Proliferation Assay (120 h) (CRC, G12V)
(§1) SK—CO-1 cells (ATCC HTB-39) are dispensed into 384-well plates, flat and clear bottom (Greiner, PNr. 781091) at a density of 500 cells per well in 60 μL EMEM (Sigma M5650)+10% Fetal Calf Serum (HyClone, PNr.: SH30084.03) and incubated at 37° C. in a CO2 incubator overnight. The next day, compounds (10 mM stock in DMSO) are added with the ECHO acoustic liquid handler system (Beckman Coulter), including DMSO controls. Plates are incubated for 120 h, and cell viability is measured using CellTiter-Glo luminescent cell viability reagent (Promega product code G7570). Viability (stated as percent of control) is defined as relative luminescence units RLU of each well divided by the RLU of cells in DMSO controls. IC50 values are determined from viability measurements by non-linear regression using a four-parameter model.

The test system of assay [4] is AsPC-1 cells. Briefly: AsPC-1 CTG proliferation assay (120 h) (pancreatic cancer, G12D). The note with it: Homo sapiens, ASPC1, AsPC-1 proliferation. The method, then:
AsPC-1 CTG Proliferation Assay (120 h) (Pancreatic Cancer, G12D)
The CTG assay is designed to measure quantitatively the proliferation of AsPC-1 cells (ATCC […]), using the CellTiter Glow Assay Kit (Promega G7571). Cells are grown in RPMI medium (ATCC) supplemented with Fetal Calf Serum (Life Technologies, Gibco BRL, Cat. No. 10270-106). On “day 0” 2000 AsPC-1 cells are seeded in 60 μL RPMI ATCC+10% FCS+ Penstrep in a 384-well plate, flat and clear bottom (Greiner, PNr. 781091). Cells are then incubated in the plates at 37° C. in a CO2 incubator overnight. On day 1, compounds (10 mM stock in DMSO) are added with the ECHO acoustic liquid handler system (Beckman Coulter), including DMSO controls. Plates are incubated for 120 h, and cell viability is measured using CellTiter-Glo luminescent cell viability reagent (Promega product code G7570). Viability (stated as percent of control) is defined as relative luminescence units RLU of each well divided by the RLU of cells in DMSO controls. IC50 values are determined from viability measurements by non-linear regression using a four-parameter model.

Assay [5] relates to SAS cells. Put plainly: SAS CTG proliferation assay (120 h) (HNSCC, wt amplified). The method, then: SAS CTG Proliferation Assay (120 h) (HNSCC, Wt Amplified)
as §1, with “SAS” for “SK—CO-1”, “(JCRB0260)” for “(ATCC HTB-39)”, “300” for “500”, “DMEM:F12 (Gibco 31330-038)+10%” for “EMEM (Sigma M5650)+10%”

Molecules are shown by their SMILES.

As a reminder, the DC50 is the midpoint of the concentration-degradation curve. A lower DC50 goes with degradation at low concentration. As usually defined, the IC50 is the concentration needed to halve the response being measured. A high value points to a need for much substance. As to `Cc1ncsc1-c1ccc(CNC(=O)[C@@H]2C[C@@H](O)CN2C(=O)C(c2cc(OCCCCN3CCCN(c4nccc(-c5cc([C@@]6(C)CCCc7sc(N)c(C#N)c76)on5)n4)[C@@H](C)C3)no2)C(C)C)cc1` (stereo partly drawn) [I-4], the DC50 in assay [1] was 0.0043 µM. Also, the “Dmax 18 h” value in assay [1] is 94 % Ctrl. Besides, the IC50 in assay [2] was determined as 0.0534 µM; in assay [3], 0.207 µM; in assay [4] it was 0.372 µM; in assay [5], 0.628 µM.

Turning to `Cc1ncsc1-c1ccc([C@H](CO)NC(=O)[C@@H]2C[C@@H](O)CN2C(=O)[C@H](C(C)C)n2cc(OCCCC(C)N3CCCN(c4nccc(-c5noc([C@@]6(C)CCCc7sc(N)c(C#N)c76)n5)n4)[C@@H](C)C3)nn2)cc1` (stereo partly drawn) [I-30], in assay [1], half-maximal degradation (DC50) was put at 0.0014 µM. Further, the “Dmax 18 h” value in assay [1] was determined as 94 % Ctrl. In addition, the IC50 in assay [2] is 0.018 µM; in assay [3], 0.0297 µM; in assay [4], 0.069 µM; in assay [5], 0.0152 µM.

Consider `Cc1ncsc1-c1ccc([C@H](CO)NC(=O)[C@@H]2C[C@@H](O)CN2C(=O)[C@H](C(C)C)n2cc(OC(C)CCCN3CCCN(c4nccc(-c5noc([C@@]6(C)CCCc7sc(N)c(C#N)c76)n5)n4)[C@@H](C)C3)nn2)cc1` (stereo partly drawn) [I-31], for which the DC50 in assay [1] is 0.0044 µM. In addition, the “Dmax 18 h” value in assay [1] came to 93 % Ctrl. The IC50 worked out at 0.0621 µM in assay [2], 0.132 µM in assay [3], 0.183 µM in assay [4] and 0.09 µM in assay [5].

In assay [1], `Cc1ncsc1-c1ccc([C@H](CO)NC(=O)[C@@H]2C[C@@H](O)CN2C(=O)[C@H](C(C)C)n2cc(OCCCCN3CCCN(c4nccc(-c5noc([C@@]6(C)CCCc7sc(N)c(C#N)c76)n5)n4)[C@@H](C)C3)nn2)cc1` [I-29] returned a DC50 of 0.002 µM. Besides, the “Dmax 18 h” value in assay [1] was 93 % Ctrl. The IC50 stood at 0.0264 µM in assay [2], 0.0243 µM in assay [3], 0.0972 µM in assay [4] and 0.548 µM in assay [5].

Consider `Cc1ncsc1-c1ccc([C@H](C)NC(=O)[C@@H]2C[C@@H](O)CN2C(=O)C(C(C)C)n2cc(OCCCCN3CCCN(c4nccc(-c5noc([C@@]6(C)CCCc7sc(N)c(C#N)c76)n5)n4)[C@@H](C)C3)nn2)cc1` (stereo partly drawn) [I-28], for which, in assay [1], the DC50 came to 0.0015 µM. In addition, in assay [1], the “Dmax 18 h” value stood at 93 % Ctrl. Further, the IC50 in assay [2] is 0.0132 µM; in assay [3], 0.045 µM; in assay [4] it was 0.072 µM; in assay [5], 0.0583 µM.

As for `CC(C)C(C(=O)N1C[C@H](O)C[C@H]1C(=O)NCc1ccc(C#N)cc1)c1cc(OCCCCN2CCCN(c3nccc(-c4noc([C@@]5(C)CCCc6sc(N)c(C#N)c65)n4)n3)[C@@H](C)C2)no1` (stereo partly drawn) [I-16], in assay [1], the DC50 is 0.0039 µM. In assay [1], the “Dmax 18 h” value is 91 % Ctrl. In addition, the IC50 in assay [2] is 0.0371 µM; in assay [3], 0.184 µM; in assay [4], 0.169 µM; in assay [5], 0.0297 µM.

Compound `Cc1ncsc1-c1ccc(CNC(=O)[C@@H]2C[C@@H](O)CN2C(=O)[C@@H](c2cc(OCCCCN3CCCN(c4nccc(-c5noc([C@@]6(C)CCCc7sc(N)c(C#N)c76)n5)n4)[C@@H](C)C3)no2)C(C)C)cc1` (single isomer, unassigned) [I-27] yielded a DC50 in assay [1] of 0.0029 µM. The “Dmax 18 h” value in assay [1] is listed as 93 % Ctrl. Besides, the IC50 was 0.0149 µM in assay [2], 0.0517 µM in assay [3], 0.144 µM in assay [4] and 0.0946 µM in assay [5].

On to `Cc1ncsc1-c1ccc([C@@H](NC(=O)[C@@H]2C[C@@H](O)CN2C(=O)[C@H](C(C)C)n2cc(OCCCCN3CCCN(c4nccc(-c5noc([C@@]6(C)CCCc7sc(N)c(C#N)c76)n5)n4)[C@@H](C)C3)nn2)[C@H](C)O)cc1` (single isomer, unassigned) [I-41], for which, in assay [1], it took 0.0016 µM to reach half-maximal degradation (DC50). For the same compound, the “Dmax 18 h” value in assay [1] is reported as 94 % Ctrl. Also, the IC50 in assay [2] stood at 0.0105 µM; in assay [3] it was 0.0226 µM; in assay [4], 0.042 µM; in assay [5] it was 0.0303 µM.

Turning to `Cc1ncsc1-c1ccc([C@H](CCO)NC(=O)[C@@H]2C[C@@H](O)CN2C(=O)[C@H](C(C)C)n2cc(OCCCCN3CCCN(c4nccc(-c5noc([C@@]6(C)CCCc7sc(N)c(C#N)c76)n5)n4)[C@@H](C)C3)nn2)cc1` [I-38], the DC50 in assay [1] turned out to be 0.0033 µM. Besides, the “Dmax 18 h” value in assay [1] was determined as 93 % Ctrl. Further, the IC50 was determined as 0.0284 µM in assay [2], 0.117 µM in assay [3], 0.128 µM in assay [4] and 0.0581 µM in assay [5].

Compound `Cc1ncsc1-c1ccc([C@@H](NC(=O)[C@@H]2C[C@@H](O)CN2C(=O)[C@H](C(C)C)n2cc(OCCCN3CCCN(c4nccc(-c5noc([C@@]6(C)CCCc7sc(N)c(C#N)c76)n5)n4)[C@@H](C)C3)nn2)[C@H](O)C(C)C)cc1` (single isomer, unassigned) [I-43] came in with a DC50 in assay [1] of 0.0012 µM. Moreover, in assay [1], the “Dmax 18 h” value was determined as 93 % Ctrl. The IC50 in assay [2] worked out at 0.0094 µM; in assay [3], 0.0262 µM; in assay [4], 0.0521 µM; in assay [5] it was 0.411 µM.

Take `Cc1ncsc1-c1ccc(CNC(=O)[C@@H]2C[C@@H](O)CN2C(=O)[C@H](c2cc(OCCCN3CCCN(c4nccc(-c5noc([C@@]6(C)CCCc7sc(N)c(C#N)c76)n5)n4)[C@@H](C)C3)no2)C(C)C)cc1` (single isomer, unassigned) [I-24]: in assay [1], the 50% degradation concentration (DC50) was 0.2 µM. Further, in assay [1], the “Dmax 18 h” value worked out at 81 % Ctrl. The IC50 in assay [2] stood at 0.802 µM; in assay [3], 2.22 µM; in assay [4] it was 1.8 µM; in assay [5], 1.31 µM.

In the case of `Cc1ncsc1-c1ccc(CNC(=O)[C@@H]2C[C@@H](O)CN2C(=O)[C@@H](c2cc(OCCCN3CCCN(c4nccc(-c5noc([C@@]6(C)CCCc7sc(N)c(C#N)c76)n5)n4)[C@@H](C)C3)no2)C(C)C)cc1` (single isomer, unassigned) [I-25], the DC50 in assay [1] came to 0.0023 µM. Also, the “Dmax 18 h” value in assay [1] is 94 % Ctrl. Moreover, the IC50 in assay [2] was determined as 0.00988 µM; in assay [3], 0.0573 µM; in assay [4], 0.0934 µM; in assay [5], 0.0178 µM.

For the compound `Cc1ncsc1-c1ccc([C@@H](NC(=O)[C@@H]2C[C@@H](O)CN2C(=O)[C@H](C(C)C)n2cc(OCCCCN3CCCN(c4nccc(-c5noc([C@@]6(C)CCCc7sc(N)c(C#N)c76)n5)n4)[C@@H](C)C3)nn2)[C@H](O)C(C)C)cc1` (single isomer, unassigned) [I-45], in assay [1], it took 0.0014 µM to reach half-maximal degradation (DC50). Further, the “Dmax 18 h” value in assay [1] is 93 % Ctrl. The IC50 in assay [2] came out at 0.0145 µM; in assay [3], 0.0333 µM; in assay [4], 0.0514 µM; in assay [5], 1.81 µM.
